Results taken from patent publication US9902713B2, “Neuroprotective compounds and use thereof” (BOARD OF REGENTS OF THE UNIVERSITY OF TEXAS SYSTEM, priority 2013, dated 2018).
Entries after “also recorded” stand apart in the source; their conditions may differ.

What was measured:
[1] = tested on: cultured hippocampal neurons; assay: MPP+ toxicity in cultured neurons (MTT); type: cell-based; settings: 10 μM compound, 10 μM MPP+, 24 hrs
Experimental: (§1) FIGS. 35A-35B show P7C3-S243 and P7C3-A20 protect cultured hippocampal and cortical neurons from MPP^+ toxicity. […] Experiments were performed 2 independent times with 8-12 replicates of each sample both times.

[2] = tested on: 6-OHDA-exposed rats; assay: 6-OHDA rat model of Parkinson's disease; type: in vivo
Experimental: (FIG. 34A) Schematic of the experimental design illustrates that rats received a unilateral stereotactic injection of 6-OHDA or saline in the medial forebrain bundle (MFB), followed by daily injection of P7C3-S243 for 7 days. Open field and cylinder tests were performed 8-10 days after 6-OHDA injection, and the amphetamine circling test was conducted on day 11. Rats were transcardially perfused on day 14, and brain tissue was processed for neurochemistry and immunohistochemistry analysis. […] Scale bars=250 μm. […] No difference was found in the concentration of serotonin in all groups (one-way ANOVA). For all experiments in FIG. 34, n=10 per group except for the HPLC analysis, for which n=7.
FIGS. 36A-36F show pretreatment with P7C3-A20 or P7C3-S243 (10 mg/kg/day) protects rats from 6-OHDA toxicity. (FIG. 36A) Schematic of the experimental design illustrates that rats were pretreated for 3 days with either P7C3-A20 or P7C3-S243, and then administered either 6-OHDA or saline by stereotactic injection in the medial forebrain bundle (MFB), followed by 7 more days of treatment with either P7C3-A20 or P7C3-S243. Open field and cylinder tests were performed between days 8-10, and the amphetamine circling test was performed on day 11. Rats were transcardially perfused on day 14, and brain tissue was processed for neurochemistry and immunohistochemistry analysis. […] Scale bars=250 μm.
FIGS. 37A-37B show treatment of 6-OHDA-exposed rats with P7C3-S243 preserves both TH and NeuN staining, illustrating that TH staining corresponds to neuronal survival. […] DAPI was used as a nuclear marker.

[3] = Long-term treatment: weight, behavior, appearance
[4] = tested on: degenerating axons; assay: Silver staining of degenerating axons after blast-mediated TBI
Experimental: Optical densitometry of silver-stained tissue was used to quantify the magnitude of staining, such that greater impedance of light through the section reflected greater axonal degeneration (FIG. 18B).
All brains were stored in a freezer at −80° C. before sectioning. […] Every 1st-12th sections of each series of 12 sections (interval: 480 μm) were collected separately. All sections were stored free-floating in FD sections storage solution (FD Neurotechnologies, Columbia, Md.) at −20° C. before further processing.
For silver staining, sections were collected in 0.1 M phosphate buffer (pH 7.4) containing 4% paraformaldehyde and fixed for 5 days at 4° C. Sections were then processed for the detection of neurodegeneration with FD NeuroSilver Kit II (FD Neurotechnologies) according to the manufacturer's instructions (for detailed procedures, cf. the manual of PK301, available at www.fdneurotech.com). Subsequently, all sections were mounted on slides, dehydrated in ethanol, cleared in xylene, and coverslipped with Permount (Fisher Scientific, Fair Lawn, N.J.).
The microscope light intensity and camera exposure were held constant. The operator outlined areas of interest around specific brain regions and recorded the intensity of light passing through the slide. Degenerating axons allowed less light to pass through the section due to their uptake of silver stain, so lower light intensity correlated with increased degeneration. Operator performing quantification was blinded to condition and treatment.

[5] = Protein binding; type: in vitro ADME
[6] = tested on: newborn hippocampal neurons; assay: In vivo neuroprotection assay: BrdU+ newborn hippocampal neurons; set-up: species or system mice
Experimental: Results. Our most robust assay involves monitoring neuroprotection of newborn hippocampal neurons in mice because this assay gives a simultaneous readout of efficacy, acute toxicity and cell permeability. For this reason, all analogs of P7C3 were evaluated initially by infusing them directly into the left lateral ventricle of environmentally-deprived^ix live mice using a subcutaneously implanted osmotic minipump. Compounds were delivered intracerebroventricularly (ICV) over a 7 day period at a concentration of 10 μM (12 μL/d).^x Coincident with ICV administration of drug, mice were dosed daily with the thymidine analog bromodeoxyuridine (BrdU, IP, 50 mg/kg) to mark newly born hippocampal neural precursor cells. At the end of the 1 week dosing, animals were sacrificed and transcardially perfused. Brain slices were stained with antibodies to BrdU, and the number of surviving neural precursor cells was quantified by counting the number of BrdU+ cells in the hippocampal dentate gyrus. To avoid complications arising from the surgical implantation of the pump, we quantified neurogenesis in the hemisphere opposite to compound infusion. Finally, to obtain consistent data across many animals, the number of BrdU+ cells was normalized to the volume of the dentate gyrus.
In Vivo Neuroprotection Assay. Test compounds were evaluated as described previously.^2 Compounds were infused intracerebroventricularly (i.c.v.) into the left lateral ventricle of four adult (12 week old) wild-type C57BL/J6 mice by means of surgically implanted Alzet osmotic minipumps that delivered solution into animals at a constant rate of 0.5 μl/hour for 7 days. Alternatively, compounds were administered intraperitoneally twice daily. Bromodeoxyuridine (BrdU) was injected intraperitoneally at 50 mg/kg/day for six days during pump infusion. Twenty-four hours after the final BrdU administration, mice were sacrificed by transcardial perfusion with 4% paraformaldehyde at pH 7.4, and their brains were processed for immunohistochemical detection of incorporated BrdU in the SGZ. Dissected brains were immersed in 4% paraformaldehyde overnight at 4° C., then cryoprotected in sucrose before being sectioned into 40 μm thick free-floating sections. Unmasking of BrdU antigen was achieved through incubating tissue sections for two hours in 50% formamide/2×SSC at 65° C., followed by a five minute wash in 2×SSC and subsequent incubation for thirty minutes in 2M HCl at 37° C. Sections were processed for immunohistochemical staining with mouse monoclonal anti-BrdU (1:100). The number of BrdU+ cells in the entire dentate gyrus SGZ in the contralateral hemisphere (opposite side of surgically implanted pump) was quantified by counting BrdU+ cells within the SGZ and dentate gyrus in every fifth section throughout the entire hippocampus and then normalizing for dentate gyrus volume.

[7] = tested on: cultured cortical neurons; assay: MPP+ toxicity in cultured neurons (MTT); type: cell-based; settings: 10 μM compound, 10 μM MPP+, 24 hrs
Experimental: as §1

[8] = target: 3A4 (Homo sapiens, UniProt P08684); assay: Cytochrome P450 inhibition; type: in vitro ADME
[9] = target: 2C8 (Homo sapiens, UniProt P10632); assay: Cytochrome P450 inhibition; type: in vitro ADME
[10] = tested on: H2009; assay: Toxicity towards human cancer cell line; type: cell-based; settings: NCI-H2009
[11] = tested on: H2122; assay: Toxicity towards human cancer cell line; type: cell-based; settings: NCI-H2122
[12] = 10 mg/kg/day, pretreated 3 days plus 7 more days
[13] = 10 mg/kg/day, 7 days after 6-OHDA
[14] = single enantiomers, 3 mg/kg/day

Chain of 3A4 (P08684 whole entry): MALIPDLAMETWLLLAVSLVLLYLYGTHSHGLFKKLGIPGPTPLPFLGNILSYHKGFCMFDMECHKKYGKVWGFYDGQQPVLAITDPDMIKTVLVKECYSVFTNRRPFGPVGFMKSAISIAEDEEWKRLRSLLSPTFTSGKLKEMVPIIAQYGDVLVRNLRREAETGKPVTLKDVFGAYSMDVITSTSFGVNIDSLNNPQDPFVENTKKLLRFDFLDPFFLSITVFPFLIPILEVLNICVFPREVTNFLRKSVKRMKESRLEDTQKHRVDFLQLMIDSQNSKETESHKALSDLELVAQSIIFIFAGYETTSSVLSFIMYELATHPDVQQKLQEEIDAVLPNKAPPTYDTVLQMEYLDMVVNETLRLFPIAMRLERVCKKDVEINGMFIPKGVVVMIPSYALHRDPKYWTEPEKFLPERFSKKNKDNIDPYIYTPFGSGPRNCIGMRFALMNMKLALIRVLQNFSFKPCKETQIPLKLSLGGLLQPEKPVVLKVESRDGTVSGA
Chain of 2C8 (P10632 whole entry): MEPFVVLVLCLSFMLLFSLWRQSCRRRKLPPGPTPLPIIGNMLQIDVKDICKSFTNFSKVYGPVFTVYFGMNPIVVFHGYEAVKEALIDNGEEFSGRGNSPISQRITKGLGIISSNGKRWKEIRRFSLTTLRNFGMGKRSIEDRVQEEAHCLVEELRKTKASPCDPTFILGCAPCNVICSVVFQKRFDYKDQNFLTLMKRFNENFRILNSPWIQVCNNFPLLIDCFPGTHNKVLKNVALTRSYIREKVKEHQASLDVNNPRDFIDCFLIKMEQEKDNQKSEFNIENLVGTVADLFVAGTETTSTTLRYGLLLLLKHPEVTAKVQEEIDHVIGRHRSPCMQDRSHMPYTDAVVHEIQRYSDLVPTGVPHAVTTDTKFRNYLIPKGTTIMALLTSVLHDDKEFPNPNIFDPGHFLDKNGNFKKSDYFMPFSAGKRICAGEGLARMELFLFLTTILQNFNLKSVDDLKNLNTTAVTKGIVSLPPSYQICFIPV

COc1cccc(NCC(F)Cn2c3ccc(Br)cc3c3cc(Br)ccc32)c1 (stereo not shown) [P7C3-A20, N-(3-(3,6-dibromo-9H-carbazol-9-yl)-2-fluoropropyl)-3-methoxyaniline]
protection (MTT) [1]: significant protection
TH-positive cells compared to 6-OHDA-Vehicle group [2, 12]: significant increase
ipsilateral rotations (amphetamine-circling) of 6-OHDA+vehicle animals compared to 6-OHDA+compound animals [2, 12]: significant increase
total distance traveled (open field) of 6-OHDA+vehicle animals compared to 6-OHDA+compound animals [2, 12]: significant decrease
total rearings (cylinder test) of 6-OHDA+vehicle animals compared to 6-OHDA+compound animals [2, 12]: significant decrease
impact on weight, behavior or appearance ([3]; up to 40 mg/kg/d for 21 d): no negative impact

COc1cccc(NCC(F)Cn2c3ccc(Br)cc3c3cc(Br)ccc32)n1 (racemic) [P7C3-S243, N-(3-(3,6-dibromo-9H-carbazol-9-yl)-2-fluoropropyl)-6-methoxypyridin-2-amine]
axonal degeneration, cerebellar molecular layer ([4]; 0.3 mg/kg/day): Extensive axonal degeneration
silver staining in CA1, corpus callosum, thalamus, cortex, olfactory bulb, striatum, dentate gyrus, cerebellum ([4]; 0.3 mg/kg/day): prominent silver staining of degenerating axons
axonal degeneration, cerebellar molecular layer ([4]; 3 and 30 mg/kg/day): blocked
axonal degeneration, CA1 stratum radiatum ([4]; 3 and 30 mg/kg/day from 24 hours after injury): blocked
axonal and cellular degeneration, thalamus, cortex, CA1 ([4]; 14 days after injury, treatment from 24 hours, FIG. 7): ameliorated
protein binding [5]: high
activity relative to P7C3 and P7C3-A20 ([6]; ICV, 1 week, FIG. 1): superior to P7C3 and comparable to P7C3-A20
number of surviving newborn hippocampal neurons ([6]; ICV, 1 week, FIG. 1): approximately doubled
dose at ceiling of efficacy ([6]; administered intraperitoneally): 10 mg/kg/day
dose at which active ([6]; administered intraperitoneally): 1 mg/kg/day
protection (MTT) [1]: significant protection
protection (MTT) [7]: significant protection
TH and NeuN immunofluorescence of the SNc ([2]; 10 mg/kg/day for 7 days): preservation of co-localized tyrosine hydroxylase (TH) and NeuN
TH-positive cells compared to 6-OHDA-Vehicle group [2, 13]: significant increase
ipsilateral rotations (amphetamine-circling) of 6-OHDA+vehicle animals compared to 6-OHDA+compound animals [2, 13]: significant increase
total distance traveled (open field) of 6-OHDA+vehicle animals compared to 6-OHDA+compound animals [2, 13]: significant decrease
total rearings (cylinder test) of 6-OHDA+vehicle animals compared to 6-OHDA+compound animals [2, 13]: significant decrease
striatal concentration of dopamine, DOPAC, and homovanillic acid compared to 6-OHDA-Vehicle group ([2]; 10 mg/kg/day, 7 days after 6-OHDA, HPLC): significant increase
TH-positive cells compared to 6-OHDA-Vehicle group [2, 12]: significant increase
ipsilateral rotations (amphetamine-circling) of 6-OHDA+vehicle animals compared to 6-OHDA+compound animals [2, 12]: significant increase
total distance traveled (open field) of 6-OHDA+vehicle animals compared to 6-OHDA+compound animals [2, 12]: significant decrease
total rearings (cylinder test) of 6-OHDA+vehicle animals compared to 6-OHDA+compound animals [2, 12]: significant decrease
impact on weight, behavior or appearance ([3]; up to 10 mg/kg/d for 21 d): no negative impact

COc1cccc(NCC(F)Cn2c3ccc(Br)cc3c3cc(Br)ccc32)n1 (single isomer, unassigned; (-)) [(−)-P7C3-S243, (−)-N-(3-(3,6-dibromo-9H-carbazol-9-yl)-2-fluoropropyl)-6-methoxypyridin-2-amine]
axonal degeneration, CA1 stratum radiatum [4, 14]: complete protection from axonal degeneration
axonal degeneration, cerebellar molecular layer [4, 14]: blocked
silver staining in CA1, corpus callosum, thalamus, cortex, olfactory bulb, striatum, dentate gyrus, cerebellum [4, 14]: protected from axonal degeneration
neuroprotective activity of pure enantiomers ([6]; ICV 0.5 μL/h, 7 days, FIG. 2): highly active; also recorded: high activity
sensitivity of cytochrome P450 [8]: insensitive
sensitivity of cytochrome P450 [9]: insensitive
IC50 [10]: > 10 µM
IC50 [11]: > 10 µM
